Source: PubChem BioAssay AID248 (DTP/NCI, 2004)
Values joined by “and” are separate entries in the source; they are usually repeats but may differ in a detail not shown here. Equal values may be shown once. Inconclusive results and toxic doses are left out.

Test system: L1210 leukemia ip in BDF1 mice, survival T/C
Assay: NCI In Vivo Anticancer Drug Screen. Data for tumor model L1210 Leukemia (intraperitoneal) in B6D2F1 (BDF1) mice
Conditions: endpoint: mean survival time, vehicle: saline, higher = longer survival
Method in brief: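 Antitumor effect is assessed in tumor-bearing animals. Survival in the compound arm is compared with a vehicle-dosed control arm and expressed as their quotient.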

`CSc1ncnc2c1ncn2C1OC(CO)C(O)C1O` (configuration not stated) was tested, and the T/C (dose: 30.0 mg/kg/injection, schedule: Q01DX003 (ip)) was 151 % of control, the T/C (dose: 30.0 mg/kg/injection, schedule: Q01DX015 (ip)) was 153 % of control and the T/C (dose: 30.0 mg/kg/injection, schedule: Q## X004 (ip)) was 121 % of control. The T/C (dose: 31.0 mg/kg/injection, schedule: Q## X015 (ip)) was 152 % of control, the T/C (dose: 32.0 mg/kg/injection, schedule: Q01DX006 (iv)) was 115 % of control and 117 % of control and the T/C (dose: 32.0 mg/kg/injection, schedule: Q01DX Z (im)) was 153 % of control. For the same compound, the T/C (dose: 32.0 mg/kg/injection, schedule: Q01DX Z (ip)) was 102 % of control, the T/C (dose: 32.0 mg/kg/injection, schedule: Q01DX Z (sc)) was 151 % of control and the T/C (dose: 32.0 mg/kg/injection, schedule: Q## X015 (ip)) was 103 % of control and 115 % of control. The T/C (dose: 32.0 mg/kg/injection, schedule: Q## X032 (ip)) was 122 % of control, the T/C (dose: 38.0 mg/kg/injection, schedule: Q01DX015 (ip)) was 100 % of control and the T/C (dose: 39.5 mg/kg/injection, schedule: Q01DX015 (ip)) was 123 % of control. The T/C (dose: 39.5 mg/kg/injection, schedule: Q## X015 (ip)) was 123 % of control, the T/C (dose: 40.0 mg/kg/injection, schedule: Q01DX001 (ip)) was 107 % of control and 110 % of control and 112 % of control and the T/C (dose: 40.0 mg/kg/injection, schedule: Q01DX017 (ip)) was 108 % of control. The T/C (dose: 40.0 mg/kg/injection, schedule: Q12HX006 (ip)) was 120 % of control, the T/C (dose: 45.0 mg/kg/injection, schedule: Q01DX015 (ip)) was 102 % of control and 110 % of control and the T/C (dose: 45.0 mg/kg/injection, schedule: Q03DX006 (ip)) was 120 % of control. For the same compound, the T/C (dose: 47.0 mg/kg/injection, schedule: Q## X015 (ip)) was 98 % of control and 103 % of control, the T/C (dose: 50.0 mg/kg/injection, schedule: Q01DX001 (ip)) was 113 % of control and 122 % of control and the T/C (dose: 50.0 mg/kg/injection, schedule: Q01DX009 (ip)) was 102 % of control. For the same compound, the T/C (dose: 54.0 mg/kg/injection, schedule: Q01DX001 (ip)) was 120 % of control, the T/C (dose: 60.0 mg/kg/injection, schedule: Q01DX001 (ip)) was 115 % of control and the T/C (dose: 60.0 mg/kg/injection, schedule: Q01DX Z (oral)) was 119 % of control. For the same compound, the T/C (dose: 61.0 mg/kg/injection, schedule: Q01DX001 (ip)) was 116 % of control, the T/C (dose: 64.0 mg/kg/injection, schedule: Q01DX Z (im)) was 109 % of control and the T/C (dose: 64.0 mg/kg/injection, schedule: Q01DX Z (sc)) was 102 % of control. For the same compound, the T/C (dose: 80.0 mg/kg/injection, schedule: Q12HX010 (ip)) was 115 % of control, the T/C (dose: 90.0 mg/kg/injection, schedule: Q01DX001 (ip)) was 121 % of control and the T/C (dose: 90.0 mg/kg/injection, schedule: Q03DX006 (ip)) was 119 % of control. For the same compound, the T/C (dose: 91.0 mg/kg/injection, schedule: Q01DX001 (ip)) was 113 % of control, the T/C (dose: 100.0 mg/kg/injection, schedule: Q01DX001 (ip)) was 111 % of control and the T/C (dose: 100.0 mg/kg/injection, schedule: Q01DX003 (ip)) was 117 % of control. The T/C (dose: 100.0 mg/kg/injection, schedule: Q02DX008 (ip)) was 95 % of control, the T/C (dose: 105.0 mg/kg/injection, schedule: Q07DX003 (ip)) was 151 % of control and 152 % of control and the T/C (dose: 121.0 mg/kg/injection, schedule: Q01DX001 (ip)) was 119 % of control. The T/C (dose: 138.0 mg/kg/injection, schedule: Q01DX001 (ip)) was 152 % of control, the T/C (dose: 160.0 mg/kg/injection, schedule: Q12HX006 (ip)) was 113 % of control and the T/C (dose: 180.0 mg/kg/injection, schedule: Q03DX006 (ip)) was 105 % of control. For the same compound, the T/C (dose: 200.0 mg/kg/injection, schedule: Q01DX001 (ip)) was 103 % of control, the T/C (dose: 256.0 mg/kg/injection, schedule: Q01DX006 (iv)) was 94 % of control and the T/C (dose: 400.0 mg/kg/injection, schedule: Q01DX001 (ip)) was 100 % of control.
